Test results from ChEMBL document CHEMBL2331144, “Synthesis and anticancer activity of analogues of phenstatin, with a phenothiazine A-ring, as a new class of microtubule-targeting agents” (Bioorg Med Chem Lett, 2013).

How the values were obtained:
NCI-H460 = assay: Growth inhibition of human NCI-H460 cells after 48 hrs by sulforhodamine B assay; type: functional; settings: NCI-H460, 48 h
CCRF-CEM = assay: Growth inhibition of human CCRF-CEM cells after 48 hrs by sulforhodamine B assay; type: functional
ACHN = assay: Growth inhibition of human ACHN cells after 48 hrs by sulforhodamine B assay; type: functional
UACC-62 = assay: Growth inhibition of human UACC62 cells after 48 hrs by sulforhodamine B assay; type: functional; settings: UACC-62, 48 h
COLO 205 = assay: Growth inhibition of human COLO205 cells after 48 hrs by sulforhodamine B assay; type: functional; settings: COLO 205, 48 h
SW-620 = assay: Growth inhibition of human SW620 cells after 48 hrs by sulforhodamine B assay; type: functional; settings: SW-620, 48 h
UACC-257 = assay: Growth inhibition of human UACC257 cells after 48 hrs by sulforhodamine B assay; type: functional; settings: UACC-257, 48 h
SK-MEL-2 = assay: Growth inhibition of human SK-MEL-2 cells after 48 hrs by sulforhodamine B assay; type: functional; settings: SK-MEL-2, 48 h
SN12C = assay: Growth inhibition of human SN12C cells after 48 hrs by sulforhodamine B assay; type: functional
MDA-MB-435 = assay: Growth inhibition of human MDA-MB-435 cells after 48 hrs by sulforhodamine B assay; type: functional; settings: MDA-MB-435, 48 h
NCI-H522 = assay: Growth inhibition of human NCI-H522 cells after 48 hrs by sulforhodamine B assay; type: functional; settings: NCI-H522, 48 h
SK-MEL-28 = assay: Growth inhibition of human SK-MEL-28 cells after 48 hrs by sulforhodamine B assay; type: functional; settings: SK-MEL-28, 48 h
IGROV-1 = assay: Growth inhibition of human IGROV1 cells after 48 hrs by sulforhodamine B assay; type: functional; settings: IGROV-1, 48 h
786-0 = assay: Growth inhibition of human 786-0 cells after 48 hrs by sulforhodamine B assay; type: functional; settings: 786-0, 48 h
K562 = assay: Growth inhibition of human K562 cells after 48 hrs by sulforhodamine B assay; type: functional; settings: K562, 48 h
RPMI-8226 = assay: Growth inhibition of human RPMI8226 cells after 48 hrs by sulforhodamine B assay; type: functional; settings: RPMI-8226, 48 h
SR = assay: Growth inhibition of human SR cells after 48 hrs by sulforhodamine B assay; type: functional
NCI-H23 = assay: Growth inhibition of human NCI-H23 cells after 48 hrs by sulforhodamine B assay; type: functional; settings: NCI-H23, 48 h
LOX IMVI = assay: Growth inhibition of human LOXIMVI cells after 48 hrs by sulforhodamine B assay; type: functional
UO-31 = assay: Growth inhibition of human UO31 cells after 48 hrs by sulforhodamine B assay; type: functional; settings: UO-31, 48 h
DU-145 = assay: Growth inhibition of human DU145 cells after 48 hrs by sulforhodamine B assay; type: functional; settings: DU-145, 48 h
OVCAR-3 = assay: Growth inhibition of human OVCAR3 cells after 48 hrs by sulforhodamine B assay; type: functional; settings: OVCAR-3, 48 h
SK-MEL-5 = assay: Growth inhibition of human SK-MEL-5 cells after 48 hrs by sulforhodamine B assay; type: functional; settings: SK-MEL-5, 48 h
A549 = assay: Growth inhibition of human A549/ATCC cells after 48 hrs by sulforhodamine B assay; type: functional; settings: A549, 48 h
[1] = Growth inhibition of human Hs 578T cells after 48 hrs by sulforhodamine B assay; type: functional
PC-3 = assay: Growth inhibition of human PC3 cells after 48 hrs by sulforhodamine B assay; type: functional; settings: PC-3, 48 h
Ovis aries = organism: Ovis aries; assay: Inhibition of sheep brain tubulin polymerization at 100 uM using DAPI by fluorimetry
MDA-MB-468 = assay: Growth inhibition of human MDA-MB-468 cells after 48 hrs by sulforhodamine B assay; type: functional; settings: MDA-MB-468, 48 h
HCT-15 = assay: Growth inhibition of human HCT15 cells after 48 hrs by sulforhodamine B assay; type: functional; settings: HCT-15, 48 h
M14 = assay: Growth inhibition of human M14 cells after 48 hrs by sulforhodamine B assay; type: functional; settings: M14, 48 h
RXF 393 = assay: Growth inhibition of human RXF393 cells after 48 hrs by sulforhodamine B assay; type: functional; settings: RXF 393, 48 h
TK-10 = assay: Growth inhibition of human TK10 cells after 48 hrs by sulforhodamine B assay; type: functional; settings: TK-10, 48 h
BT-549 = assay: Growth inhibition of human BT549 cells after 48 hrs by sulforhodamine B assay; type: functional; settings: BT-549, 48 h
HOP-62 = assay: Growth inhibition of human HOP62 cells after 48 hrs by sulforhodamine B assay; type: functional; settings: HOP-62, 48 h
KM12 = assay: Growth inhibition of human KM12 cells after 48 hrs by sulforhodamine B assay; type: functional; settings: KM12, 48 h
[2] = Growth inhibition of human NCI-ADR-RES cells after 48 hrs by sulforhodamine B assay; type: functional
OVCAR-5 = assay: Growth inhibition of human OVCAR5 cells after 48 hrs by sulforhodamine B assay; type: functional; settings: OVCAR-5, 48 h
MDA-MB-231 = assay: Growth inhibition of human MDA-MB-231 cells after 48 hrs by sulforhodamine B assay; type: functional; settings: MDA-MB-231, 48 h
[3] = Growth inhibition of human HCC2998 cells after 48 hrs by sulforhodamine B assay; type: functional; settings: HCC 2998, 48 h
Malme-3M = assay: Growth inhibition of human MALME-3M cells after 48 hrs by sulforhodamine B assay; type: functional
SF-539 = assay: Growth inhibition of human SF539 cells after 48 hrs by sulforhodamine B assay; type: functional; settings: SF-539, 48 h
SNB-75 = assay: Growth inhibition of human SNB75 cells after 48 hrs by sulforhodamine B assay; type: functional; settings: SNB-75, 48 h
SF-268 = assay: Growth inhibition of human SF268 cells after 48 hrs by sulforhodamine B assay; type: functional; settings: SF-268, 48 h
HL-60(TB) = assay: Growth inhibition of human HL-60(TB) cells after 48 hrs by sulforhodamine B assay; type: functional; settings: HL-60, 48 h
HCT-116 = assay: Growth inhibition of human HCT116 cells after 48 hrs by sulforhodamine B assay; type: functional; settings: HCT-116, 48 h
OVCAR-4 = assay: Growth inhibition of human OVCAR4 cells after 48 hrs by sulforhodamine B assay; type: functional; settings: OVCAR-4, 48 h
MCF7 = assay: Growth inhibition of human MCF7 cells after 48 hrs by sulforhodamine B assay; type: functional; settings: MCF7, 48 h
SF-295 = assay: Growth inhibition of human SF295 cells after 48 hrs by sulforhodamine B assay; type: functional; settings: SF-295, 48 h
T47D = assay: Growth inhibition of human T47D cells after 48 hrs by sulforhodamine B assay; type: functional
A498 = assay: Growth inhibition of human A498 cells after 48 hrs by sulforhodamine B assay; type: functional; settings: A498, 48 h
MOLT-4 = assay: Growth inhibition of human MOLT4 cells after 48 hrs by sulforhodamine B assay; type: functional; settings: MOLT-4, 48 h
HT-29 = assay: Growth inhibition of human HT-29 cells after 48 hrs by sulforhodamine B assay; type: functional; settings: HT-29, 48 h
OVCAR-8 = assay: Growth inhibition of human OVCAR8 cells after 48 hrs by sulforhodamine B assay; type: functional; settings: OVCAR-8, 48 h
CAKI-1 = assay: Growth inhibition of human CAKI-1 cells after 48 hrs by sulforhodamine B assay; type: functional; settings: CAKI-1, 48 h
SK-OV-3 = assay: Growth inhibition of human SKOV3 cells after 48 hrs by sulforhodamine B assay; type: functional; settings: SK-OV-3, 48 h

**Q.** With `COc1c(F)ccc(C(=O)N2c3ccccc3Sc3ccccc32)c1F` as the compound, how does the GI50 (NCI-H460) read?
**A.** Its GI50 is 3.67 µM.

**Q.** And the GI50 (CCRF-CEM)?
**A.** Its GI50 is 5 µM.

**Q.** And the GI50 (ACHN)?
**A.** Its GI50 is 7.96 µM.

**Q.** What about the GI50 (UACC-62) of the same compound?
**A.** Its GI50 is 2.68 µM.

**Q.** And the GI50 (COLO 205)?
**A.** Its GI50 is 6.47 µM.

**Q.** And the GI50 (SW-620)?
**A.** Its GI50 is 3.68 µM.

**Q.** What about the GI50 (UACC-257) of the same compound?
**A.** The GI50 was 6.51 µM.

**Q.** And the GI50 (SK-MEL-2)?
**A.** The GI50 was 3.45 µM.

**Q.** And the GI50 (SN12C)?
**A.** The GI50 was 6.07 µM.

**Q.** And the GI50 (MDA-MB-435)?
**A.** Its GI50 is 1.8 µM.

**Q.** And the GI50 (NCI-H522)?
**A.** The GI50 was 2.7 µM.

**Q.** And the GI50 (SK-MEL-28)?
**A.** The GI50 was 4.93 µM.

**Q.** What about the GI50 (IGROV-1) of the same compound?
**A.** The GI50 was 4.87 µM.

**Q.** What about the GI50 (786-0) of the same compound?
**A.** Its GI50 is 7.57 µM.

**Q.** What about the GI50 (K562) of the same compound?
**A.** The GI50 was 3.24 µM.

**Q.** And the GI50 (RPMI-8226)?
**A.** The GI50 was 3.22 µM.

**Q.** And the GI50 (SR)?
**A.** The GI50 was 2.33 µM.

**Q.** What about the GI50 (NCI-H23) of the same compound?
**A.** The GI50 was 4.89 µM.

**Q.** And the GI50 (LOX IMVI)?
**A.** Its GI50 is 4.72 µM.

**Q.** What about the GI50 (UO-31) of the same compound?
**A.** Its GI50 is 6.52 µM.

**Q.** What about the GI50 (DU-145) of the same compound?
**A.** The GI50 was 14 µM.

**Q.** What about the GI50 (OVCAR-3) of the same compound?
**A.** The GI50 was 4.2 µM.

**Q.** And the GI50 (SK-MEL-5)?
**A.** Its GI50 is 2.95 µM.

**Q.** What about the GI50 (A549) of the same compound?
**A.** Its GI50 is 4.07 µM.

**Q.** And the GI50 [1]?
**A.** Its GI50 is 6.92 µM.

**Q.** What about the GI50 (PC-3) of the same compound?
**A.** Its GI50 is 2.84 µM.

**Q.** And the inhibition (Ovis aries)?
**A.** The inhibition was 10%.

**Q.** What about the GI50 (MDA-MB-468) of the same compound?
**A.** The GI50 was 1.7 µM.

**Q.** What about the GI50 (HCT-15) of the same compound?
**A.** Its GI50 is 3.07 µM.

**Q.** What about the GI50 (M14) of the same compound?
**A.** Its GI50 is 3.86 µM.

**Q.** What about the GI50 (RXF 393) of the same compound?
**A.** Its GI50 is 2.29 µM.

**Q.** And the GI50 (TK-10)?
**A.** Its GI50 is 10.2 µM.

**Q.** And the GI50 (BT-549)?
**A.** Its GI50 is 5.21 µM.

**Q.** And the GI50 (HOP-62)?
**A.** The GI50 was 8.37 µM.

**Q.** What about the GI50 (KM12) of the same compound?
**A.** The GI50 was 4.01 µM.

**Q.** What about the GI50 [2] of the same compound?
**A.** Its GI50 is 2.97 µM.

**Q.** What about the GI50 (OVCAR-5) of the same compound?
**A.** Its GI50 is 24.1 µM.

**Q.** And the GI50 (MDA-MB-231)?
**A.** The GI50 was 3.66 µM.

**Q.** And the GI50 [3]?
**A.** Its GI50 is 11.7 µM.

**Q.** And the GI50 (Malme-3M)?
**A.** Its GI50 is 3.09 µM.

**Q.** And the GI50 (SF-539)?
**A.** Its GI50 is 5.03 µM.

**Q.** What about the GI50 (SNB-75) of the same compound?
**A.** Its GI50 is 2.32 µM.

**Q.** What about the GI50 (SF-268) of the same compound?
**A.** Its GI50 is 6.5 µM.

**Q.** What about the GI50 (HL-60(TB)) of the same compound?
**A.** Its GI50 is 3.99 µM.

**Q.** What about the GI50 (HCT-116) of the same compound?
**A.** The GI50 was 3.6 µM.

**Q.** And the GI50 (OVCAR-4)?
**A.** The GI50 was 10.3 µM.

**Q.** And the GI50 (MCF7)?
**A.** The GI50 was 5.5 µM.

**Q.** What about the GI50 (SF-295) of the same compound?
**A.** Its GI50 is 6.1 µM.

**Q.** What about the GI50 (T47D) of the same compound?
**A.** The GI50 was 5.24 µM.

**Q.** And the GI50 (A498)?
**A.** The GI50 was 2.22 µM.

**Q.** And the GI50 (MOLT-4)?
**A.** Its GI50 is 4.29 µM.

**Q.** What about the GI50 (HT-29) of the same compound?
**A.** Its GI50 is 3.24 µM.

**Q.** What about the GI50 (OVCAR-8) of the same compound?
**A.** The GI50 was 10 µM.

**Q.** What about the GI50 (CAKI-1) of the same compound?
**A.** Its GI50 is 4.01 µM.

**Q.** What about the GI50 (SK-OV-3) of the same compound?
**A.** Its GI50 is 12.2 µM.
